Assay results reported in patent US7781393B2, “Methods for inhibiting tumor cell growth” (Dana-Farber Cancer Institute, Inc., priority 2004, dated 2010).

Columns and labels:
primary MM tumor cells = assay: MTT survival assay, short-term culture of primary MM tumor cells; type: cell-based, human; conditions: all primary patient samples tested
Excerpt: The dexamethasone (Dex)-sensitive parental line MM-1S and its Dex-resistant subline MM-1R cells were kindly provided by Dr Steven Rosen (Northwestern University, Chicago, Ill.); the chemo-sensitive parental MM cell line RPMI-8226/S, and its chemo-resistant sublines RPMI-8226/Dox40 (doxorubicin-resistant), RPMI-8226/MR20 (mitoxantrone-resistant), RPMI-8226/LR5 (melphalan-resistant) cells were kindly provided by Dr William Dalton (lee Moffitt Cancer Center, Tampa, Fla.); the OCI-My5 cells were provided by Dr Meissner (University of Ontario, Toronto, Canada); the EJM, LP-1, KMM1, K620, OPM-1, and OPM-2 cells were provided by Dr Leif Bergsagel; INA-6 cells were provided by Renate Burger (University of Erlangen-Nuernberg, Germany); XG-1 cells were obtained from Dr Pierfrancesco Tassone (University of Magna Grecia, Italy); NCI-H929 and U266 cells were purchased from American Type Cell Culture (ATCC); MM-1S-myrAkt and MM-1S-Bcl-2 cells were established by stable transfection of MM-1S cells with constructs encoding for constitutively active myristoylated form of Akt and for Bcl-2, respectively. […] Purity (>95%) was assessed by both morphology and flow cytometry (Becton-Dickinson FACSort, Franklin Lakes, N.J.). […]

BM stromal cells (BMSCs) = assay: Viability of bone marrow stromal cells (MTT); type: cell-based, human; conditions: 500 nM for 72 hrs
Procedure: Primary MM patient samples were freshly isolated from bone marrow aspirates from patients undergoing diagnostic or restaging bone marrow aspirates under an IRB-approved protocol. MM cells were purified using custom-made RosetteSep cocktail of monoclonal antibodies (mAb's) (StemCell Technologies Inc, Vancouver, Canada) for negative selection of CD138^+ MM cells. The CD138^− fraction of the MM cell purification process was cultured in 20% FBS-supplemented media for isolation of the adherent bone marrow stromal cells. Peripheral blood B cells were isolated by ficoll-density centrifugation of peripheral blood samples from MM patients. […] […] At the end of each treatment, cells were incubated with 1 mg/ml MTT for 4 hours at 37° C.; a mixture of isopropanol and 1N HCl (23:2, v/v) was then added under vigorous pipetting to dissolve the formazan crystals. Dye absorbance (A) in viable cells was measured at 570 nm, with 630 nm as a reference wavelength. Cell survival was estimated as a percentage of the value of untreated controls. All experiments were repeated at least three times, and each experimental condition was repeated at least in quadruplicate wells in each experiment.

SMILES: Nc1ncnc2c1c(-c1cccc(OCc3ccccc3)c1)cn2[C@H]1C[C@H](CN2CCCC2)C1 [ADW-742, trans-5-(3-benzyloxy-phenyl)-7-(3-pyrrolidin-1-ylmethyl-cyclobutyl)-7H-pyrrolo[2,3-d]pyrimidin-4-ylamine]
- serum-induced growth of primary MM patient samples (primary MM tumor cells): completely suppresses
- viability of BM stromal cells (BM stromal cells (BMSCs)): does not significantly affect
